This note sets out measurements from ChEMBL document CHEMBL1201862, “PubChem BioAssay data set” (2004).

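Each compound was tested at five concentrations against cells in 96-well plates for 48 hours. At the GI50, growth is halved.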 Active and inactive are the calls of the source. Cut-off read from the data, not from the text of the source: active = GI50 up to about 1.1 µM and inactive = higher. A value given as a limit tells only on which side of the number the result lay.

Test systems include A549; ACHN; BT-549; CCRF-CEM; DU-145; HCT-116; HCT-15; HOP-62; K562; NCI-H226; NCI-H23; NCI-H522; NCI/ADR-RES; OVCAR-3; OVCAR-4; PC-3; RXF 393; SK-MEL-5; U-251; UO-31.
Experiment in all cases: NCI-60 cell line screen, 48 h

Turning to `CCN(Cc1cc(Cl)cc(C)c1O)Cc1c(O)ccc2ccccc12`, the GI50 was 18.8 µM (inactive) in the assay with A549; 17.3 µM (inactive) in the assay with ACHN; 13.3 µM (inactive) in the assay with BT-549; 10.5 µM (inactive) with CCRF-CEM; 20.2 µM (inactive) with DU-145; 16.7 µM (inactive) in the assay with HCT-116. The GI50 was 14.6 µM with HCT-15; 12.5 µM (inactive) in the assay with HOP-62; 19.1 µM (inactive) in the assay on K562; 19.1 µM (inactive) in the assay on NCI-H226; 15.6 µM (inactive) in the assay on NCI-H23; 11.2 µM (inactive) in the assay on NCI-H522. Also, the GI50 is 14.8 µM (inactive) with NCI/ADR-RES; 15 µM (inactive) in the assay on OVCAR-3; 17.1 µM (inactive) in the assay on OVCAR-4; 15.5 µM (inactive) with PC-3; 16.4 µM (inactive) in the assay on RXF 393; 14.9 µM (inactive) with SK-MEL-5. The GI50 in the assay with U-251 is 17.1 µM (inactive); with UO-31, 16.2 µM (inactive).
As for `Cc1cc(C(=O)CCCCOc2ccc(C3=NCCO3)cc2)c(C)n1C`, the GI50 is > 10 µM (inactive) with A549; 35.4 µM (inactive) in the assay on ACHN; 33.3 µM (inactive) with BT-549; 20.6 µM (inactive) in the assay with CCRF-CEM; 24.3 µM (inactive) with DU-145; 39.9 µM (inactive) in the assay on HCT-116. Moreover, the GI50 was 38.6 µM in the assay on HCT-15; 52.7 µM (inactive) with HOP-62; 39.2 µM (inactive) with K562; 29.3 µM (inactive) with NCI-H226; 41.1 µM (inactive) in the assay with NCI-H23; 50.7 µM (inactive) in the assay on NCI-H522. Also, the GI50 with NCI/ADR-RES is 26.7 µM (inactive); with OVCAR-3, 38.8 µM (inactive); in the assay on OVCAR-4, 36.5 µM (inactive); in the assay on PC-3, 19.9 µM (inactive); with RXF 393 it was 13.2 µM (inactive); with SK-MEL-5, 15.7 µM (inactive). Besides, the results for the GI50 in the assay on U-251 and with UO-31 were 31.3 µM (inactive) and 39.9 µM (inactive), respectively.
As to `NS(=O)(=O)c1ccc(Nc2c3ccccc3nc3c(C(=O)NCCO)cccc23)cc1`, the GI50 in the assay with A549 is 0.178 µM (active); with ACHN, 0.252 µM (active); with BT-549 it was 0.145 µM (active); in the assay on CCRF-CEM, 0.0335 µM (active); with DU-145, 0.165 µM (active); in the assay on HCT-116, 0.149 µM (active). In addition, the GI50 in the assay on HCT-15 was 0.169 µM; in the assay with HOP-62 it was 0.167 µM (active); in the assay with K562, 0.13 µM (active); in the assay with NCI-H226 it was 0.113 µM (active); in the assay with NCI-H23 it was 0.132 µM (active); in the assay on NCI-H522, 0.127 µM (active). The GI50 is 0.408 µM (active) in the assay with NCI/ADR-RES; 0.12 µM (active) in the assay on OVCAR-3; 0.195 µM (active) in the assay on OVCAR-4; 0.177 µM (active) in the assay on PC-3; 0.0857 µM (active) with RXF 393; 0.0853 µM (active) in the assay with SK-MEL-5. Also, the GI50 in the assay on U-251 is 0.0728 µM (active); with UO-31 it was 0.181 µM (active).
For the compound `COc1ccc(OC)c2cc(Cc3ccc(N(C)C)cc3)c(=O)c(Cc3ccc(N(C)C)cc3)cc12`, the GI50 is 57 µM (inactive) in the assay on A549; > 100 µM (inactive) with ACHN; > 100 µM (inactive) with BT-549; > 100 µM (inactive) with CCRF-CEM; > 100 µM (inactive) in the assay on DU-145; > 100 µM (inactive) with HCT-116. Besides, the GI50 is above 100 µM in the assay on HCT-15; 58.6 µM (inactive) in the assay with HOP-62; 34.4 µM (inactive) in the assay with K562; 47.3 µM (inactive) in the assay on NCI-H226; > 100 µM (inactive) in the assay with NCI-H23; 20.7 µM (inactive) in the assay with NCI-H522. Further, the GI50 was 30.2 µM (inactive) in the assay with NCI/ADR-RES; > 100 µM (inactive) in the assay on OVCAR-3; > 100 µM (inactive) with OVCAR-4; 62.1 µM (inactive) in the assay on PC-3; > 100 µM (inactive) with RXF 393; 63.7 µM (inactive) with SK-MEL-5. The GI50 in the assay with U-251 was 53.2 µM (inactive); in the assay with UO-31 it was > 100 µM (inactive).
Take `COc1ccc(/C=C2\CN(C)CC3C2=NC(=S)NC3c2ccc(OC)cc2)cc1` (stereo not given): the GI50 in the assay with A549 was 4 µM (inactive); in the assay with ACHN, 5.73 µM (inactive); with BT-549, 7.6 µM (inactive); in the assay on CCRF-CEM, 8.13 µM (inactive); in the assay with DU-145 it was 4.68 µM (inactive); with HCT-116, 3.43 µM (inactive). The GI50 with HCT-15 was 3.46 µM; in the assay with HOP-62, 6.46 µM (inactive); in the assay with K562, 3.95 µM (inactive); in the assay with NCI-H226, 41.5 µM (inactive); in the assay with NCI-H23, 7.96 µM (inactive); with NCI-H522, 1.63 µM (inactive). Moreover, the GI50 in the assay on NCI/ADR-RES is 2.55 µM (inactive); with OVCAR-3, 1.98 µM (inactive); in the assay with OVCAR-4, 4.92 µM (inactive); in the assay with PC-3, 6.21 µM (inactive); with RXF 393, 2.17 µM (inactive); with SK-MEL-5, 4.24 µM (inactive). Moreover, the figures for the GI50 in the assay on U-251 and in the assay with UO-31 were 8.55 µM (inactive) and 4.95 µM (inactive), respectively.
`COC(=O)[C@]1(NC(=O)c2ccccc2)C[C@H]1C=O`: the GI50 in the assay with A549 was > 100 µM (inactive); in the assay with ACHN, > 100 µM (inactive); with BT-549, 98.2 µM (inactive); in the assay on CCRF-CEM, 21.6 µM (inactive); in the assay with DU-145, > 100 µM (inactive); in the assay on HCT-116, > 100 µM (inactive). For the same compound, the GI50 was above 90.6 µM in the assay with HCT-15; > 100 µM (inactive) in the assay on HOP-62; > 100 µM (inactive) with K562; 46.7 µM (inactive) with NCI-H226; > 100 µM (inactive) in the assay with NCI-H23; > 61.1 µM (inactive) in the assay on NCI-H522. Also, the GI50 is > 58.6 µM (inactive) in the assay with NCI/ADR-RES; > 100 µM (inactive) in the assay on OVCAR-3; > 100 µM (inactive) in the assay with OVCAR-4; > 100 µM (inactive) with PC-3; > 100 µM (inactive) in the assay with RXF 393; > 100 µM (inactive) in the assay with SK-MEL-5. In addition, the GI50 in the assay with U-251 and in the assay on UO-31 was > 100 µM (inactive) throughout.
With `CCOC(=O)C#Cc1ccc([N+](=O)[O-])cc1`, the GI50 is 10.4 µM (inactive) with A549; 3.21 µM (inactive) in the assay on ACHN; 2.18 µM (inactive) with BT-549; 1.1 µM (active) with CCRF-CEM; 1.74 µM (inactive) in the assay on DU-145; 1.66 µM (inactive) in the assay on HCT-116. The GI50 with HCT-15 is 1.82 µM; with HOP-62 it was 3.24 µM (inactive); in the assay on K562, 2.07 µM (inactive); with NCI-H226 it was 2.68 µM (inactive); in the assay on NCI-H23, 2.59 µM (inactive); in the assay on NCI-H522 it was 1.49 µM (inactive). Also, the GI50 was 4.18 µM (inactive) in the assay on NCI/ADR-RES; 1.71 µM (inactive) with OVCAR-3; 11.2 µM (inactive) with OVCAR-4; 2.72 µM (inactive) with PC-3; 1.28 µM (inactive) with RXF 393; 2.67 µM (inactive) with SK-MEL-5. For the same compound, the GI50 was 1.64 µM (inactive) with U-251 and 1.77 µM (inactive) in the assay with UO-31.
Turning to `CCOC(=O)/C=C(/C(=O)OCC)n1ccc(=O)n(Cc2cn(COCCOC(C)=O)nn2)c1=O`, the GI50 with A549 was > 100 µM (inactive); with ACHN, 14.8 µM (inactive); in the assay with BT-549, 16.4 µM (inactive); in the assay on CCRF-CEM, 2.14 µM (inactive); in the assay with DU-145, 40.2 µM (inactive); with HCT-116, 31.6 µM (inactive). The GI50 was 20.3 µM in the assay on HCT-15; > 100 µM (inactive) in the assay with HOP-62; 19.1 µM (inactive) in the assay with K562; 33.7 µM (inactive) in the assay with NCI-H226; 20.7 µM (inactive) in the assay on NCI-H23; 4.54 µM (inactive) with NCI-H522. The GI50 is 20.3 µM (inactive) with NCI/ADR-RES; 17.8 µM (inactive) in the assay with OVCAR-3; 22.9 µM (inactive) in the assay on OVCAR-4; 35.4 µM (inactive) in the assay with PC-3; 25.6 µM (inactive) in the assay with RXF 393; 25.8 µM (inactive) in the assay with SK-MEL-5. For the same compound, the GI50 in the assay on U-251 was 28 µM (inactive); in the assay on UO-31, 18 µM (inactive).
Turning to `CC(C)(C)c1ccc2c(c1)C#Cc1cc(C(C)(C)C)ccc1OCCCO2`, the GI50 with A549, in the assay on ACHN, in the assay on BT-549, in the assay on CCRF-CEM, in the assay with DU-145 and with HCT-116 was > 100 µM (inactive) each time. Further, the GI50 in the assay on HCT-15 is above 100 µM; in the assay with HOP-62, > 100 µM (inactive); with K562 it was > 100 µM (inactive); with NCI-H226 it was > 100 µM (inactive); with NCI-H23, > 100 µM (inactive); in the assay with NCI-H522, > 100 µM (inactive). For the same compound, the GI50 in the assay on NCI/ADR-RES, with OVCAR-3, in the assay on OVCAR-4, in the assay on PC-3, in the assay with RXF 393 and in the assay with SK-MEL-5 was > 100 µM (inactive) in each case. Further, the GI50 with U-251 and in the assay with UO-31 was > 100 µM (inactive) each time.
On to `O=C1/C(=C/c2ccccc2[N+](=O)[O-])N=C(c2ccccc2)N1c1nc2ccccc2s1`, for which the GI50 in the assay on A549 was 34.2 µM (inactive); with ACHN, 23.2 µM (inactive); with BT-549 it was 20 µM (inactive); in the assay on CCRF-CEM, < 0.01 µM (active); in the assay with DU-145, 20.9 µM (inactive); in the assay with HCT-116, 17.9 µM (inactive). Moreover, the GI50 in the assay on HCT-15 is 17.5 µM; with HOP-62 it was 27.1 µM (inactive); in the assay with K562, 15 µM (inactive); in the assay with NCI-H226, 41.3 µM (inactive); with NCI-H23 it was 17.4 µM (inactive); in the assay on NCI-H522 it was 18.6 µM (inactive). In addition, the GI50 in the assay with NCI/ADR-RES is 16.6 µM (inactive); in the assay on OVCAR-3, 21.1 µM (inactive); with OVCAR-4, 19.4 µM (inactive); with PC-3, 31 µM (inactive); in the assay with RXF 393, 16.9 µM (inactive); with SK-MEL-5, 25.2 µM (inactive). Further, the GI50 is 29.4 µM (inactive) in the assay with U-251 and 31.6 µM (inactive) in the assay with UO-31.
